The subject of the assay is BDF1 mice, s.c. Lewis lung carcinoma, T/C %. Description: NCI In Vivo Anticancer Drug Screen. Data for tumor model Lewis Lung Carcinoma (subcutaneous) in B6D2F1 (BDF1) mice. In a few lines: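 First, mice carry a transplantable tumor. Next, groups receive either compound or vehicle. Finally, survival or tumor dimensions in the dosed animals are divided by the corresponding control figure.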

[1] abbreviates: endpoint: mean tumor weight, dose: 25.0 mg/kg/injection, schedule: Q01DX011 (ip), vehicle: carboxymethylcellulose (CMC), higher = larger tumour.
Where [2] appears, read: endpoint: mean tumor weight, dose: 50.0 mg/kg/injection, schedule: Q01DX011 (ip), vehicle: carboxymethylcellulose (CMC), higher = larger tumour.
Setting [3] is: endpoint: mean tumor weight, dose: 100.0 mg/kg/injection, schedule: Q01DX011 (ip), vehicle: carboxymethylcellulose (CMC), higher = larger tumour.
The mark [4] stands for this setting: endpoint: mean tumor weight, dose: 200.0 mg/kg/injection, schedule: Q01DX011 (ip), vehicle: carboxymethylcellulose (CMC), higher = larger tumour.

The structures appear in SMILES notation. Results filed as inconclusive are left out.

Consider `C1=Cc2ccccc2CC1`, for which the T/C is 121 % of control (endpoint: mean tumor weight, dose: 133.0 mg/kg/injection, schedule: Q01DX011 (ip), vehicle: other, higher = larger tumour); 46 % of control (endpoint: mean tumor weight, dose: 200.0 mg/kg/injection, schedule: Q01DX011 (ip), vehicle: other, higher = larger tumour); 45 % of control (endpoint: mean tumor weight, dose: 300.0 mg/kg/injection, schedule: Q01DX011 (ip), vehicle: other, higher = larger tumour).
With `C=CCn1c(=O)n(CC=C)c(=O)n(CC=C)c1=O`, the T/C runs as follows: (endpoint: mean tumor weight, dose: 15.0 mg/kg/injection, schedule: Q01DX011 (ip), vehicle: carboxymethylcellulose (CMC), higher = larger tumour) 82 % of control; (endpoint: mean tumor weight, dose: 120.0 mg/kg/injection, schedule: Q01DX011 (ip), vehicle: carboxymethylcellulose (CMC), higher = larger tumour) 112 % of control; (endpoint: mean tumor weight, dose: 240.0 mg/kg/injection, schedule: Q01DX011 (ip), vehicle: carboxymethylcellulose (CMC), higher = larger tumour) 67 % of control.
Take `NC(Cc1cc(Cl)c(O)c(Cl)c1)C(=O)O` (configuration not stated): the T/C was 115 % of control (endpoint: median survival time, dose: 18.75 mg/kg/injection, schedule: Q01DX009 (ip), vehicle: saline, higher = longer survival); 117 % of control (endpoint: median survival time, dose: 37.5 mg/kg/injection, schedule: Q01DX009 (ip), vehicle: saline, higher = longer survival); 115 % of control (endpoint: median survival time, dose: 75.0 mg/kg/injection, schedule: Q01DX009 (ip), vehicle: saline, higher = longer survival).
Consider `COC(=O)c1nc(-c2ccc3c(n2)C(=O)C(N)=C(OC)C3=O)c(N)c(-c2ccc(OC)c(OC)c2O)c1C`, for which the T/C was 65 % of control (endpoint: mean tumor weight, dose: 0.25 mg/kg/injection, schedule: Q01DX011 (ip), vehicle: other, higher = larger tumour); 70 % of control (endpoint: mean tumor weight, dose: 0.5 mg/kg/injection, schedule: Q01DX011 (ip), vehicle: other, higher = larger tumour); 45 % of control (endpoint: mean tumor weight, dose: 1.0 mg/kg/injection, schedule: Q01DX011 (ip), vehicle: other, higher = larger tumour).
On to `COC1C(OC(=O)c2ccc(C)[nH]2)C(O)C(Oc2ccc3c(O)c(NC(=O)c4ccc(O)c(CC=C(C)C)c4)c(=O)oc3c2Cl)OC1(C)C` (configuration not stated), for which the T/C by setting is: (endpoint: median survival time, dose: 0.38 mg/kg/injection, schedule: Q01DX009 (ip), vehicle: other, higher = longer survival) 113 % of control; (endpoint: median survival time, dose: 0.75 mg/kg/injection, schedule: Q01DX009 (ip), vehicle: other, higher = longer survival) 91 % of control; (endpoint: median survival time, dose: 3.0 mg/kg/injection, schedule: Q01DX007 (ip), vehicle: other, higher = longer survival) 88 % of control; (endpoint: median survival time, dose: 3.0 mg/kg/injection, schedule: Q01DX009 (ip), vehicle: other, higher = longer survival) 117 % of control; (endpoint: median survival time, dose: 6.0 mg/kg/injection, schedule: Q01DX007 (ip), vehicle: other, higher = longer survival) 93 % of control; (endpoint: median survival time, dose: 6.0 mg/kg/injection, schedule: Q01DX009 (ip), vehicle: other, higher = longer survival) 98 % of control. For the same compound, the T/C (endpoint: median survival time, dose: 12.0 mg/kg/injection, schedule: Q01DX007 (ip), vehicle: other, higher = longer survival) is 98 % of control; the T/C (endpoint: median survival time, dose: 24.0 mg/kg/injection, schedule: Q01DX007 (ip), vehicle: other, higher = longer survival) was 91 % of control; the T/C (endpoint: median survival time, dose: 24.0 mg/kg/injection, schedule: Q01DX009 (ip), vehicle: other, higher = longer survival) is 88 % of control; the T/C (endpoint: median survival time, dose: 25.0 mg/kg/injection, schedule: Q01DX009 (ip), vehicle: other, higher = longer survival) was 90 % of control; the T/C (endpoint: median survival time, dose: 48.0 mg/kg/injection, schedule: Q01DX007 (ip), vehicle: other, higher = longer survival) was 107 % of control; the T/C (endpoint: median survival time, dose: 50.0 mg/kg/injection, schedule: Q01DX009 (ip), vehicle: other, higher = longer survival) is 105 % of control.
As for `COc1cc(C(=O)OC2CC34CCNC35CC(OC5(OC)C2O)c2cc3c(cc24)OCO3)ccc1O` (configuration not stated), the T/C (endpoint: mean tumor weight, dose: 0.25 mg/kg/injection, schedule: Q01DX011 (ip), vehicle: carboxymethylcellulose (CMC), higher = larger tumour) is 41 % of control; the T/C (endpoint: mean tumor weight, dose: 0.5 mg/kg/injection, schedule: Q01DX011 (ip), vehicle: carboxymethylcellulose (CMC), higher = larger tumour) was 50 % of control; the T/C (endpoint: mean tumor weight, dose: 1.0 mg/kg/injection, schedule: Q01DX011 (ip), vehicle: carboxymethylcellulose (CMC), higher = larger tumour) was 87 % of control.
`Oc1ccc2ccccc2c1N=Nc1ccccc1`: the T/C is 78 % of control under setting [1], 75 % of control under setting [2], 84 % of control under setting [3] and 43 % of control under setting [4].
As for `COc1cc(O)c2c(c1)C(=O)c1cc3c(c(O)c1C2=O)C(O)C(OC)C(C)(O)C3=O` (configuration not stated), the T/C was 109 % of control (endpoint: median survival time, dose: 12.5 mg/kg/injection, schedule: Q01DX009 (ip), vehicle: water, higher = longer survival); 95 % of control (endpoint: median survival time, dose: 25.0 mg/kg/injection, schedule: Q01DX009 (ip), vehicle: Klucel (hydroxypropylcellulose) (HPC), higher = longer survival); 89 % of control (endpoint: median survival time, dose: 25.0 mg/kg/injection, schedule: Q01DX009 (ip), vehicle: water, higher = longer survival); 103 % of control (endpoint: median survival time, dose: 50.0 mg/kg/injection, schedule: Q01DX009 (ip), vehicle: Klucel (hydroxypropylcellulose) (HPC), higher = longer survival); 124 % of control (endpoint: median survival time, dose: 50.0 mg/kg/injection, schedule: Q01DX009 (ip), vehicle: water, higher = longer survival); 100 % of control (endpoint: median survival time, dose: 100.0 mg/kg/injection, schedule: Q01DX009 (ip), vehicle: Klucel (hydroxypropylcellulose) (HPC), higher = longer survival). Also, the T/C was 103 % of control (endpoint: median survival time, dose: 100.0 mg/kg/injection, schedule: Q01DX009 (ip), vehicle: water, higher = longer survival) and 90 % of control (endpoint: median survival time, dose: 200.0 mg/kg/injection, schedule: Q01DX009 (ip), vehicle: water, higher = longer survival).
As for `COc1cccc(/C=N\NC(=O)C(C)SC(C)C(=O)N/N=C/c2cccc(OC)c2)c1` (configuration not stated), the T/C under setting [1] was 82 % of control; the T/C under setting [2] was 113 % of control; the T/C under setting [3] is 67 % of control; the T/C under setting [4] was 101 % of control; the T/C (endpoint: mean tumor weight, dose: 400.0 mg/kg/injection, schedule: Q01DX011 (ip), vehicle: carboxymethylcellulose (CMC), higher = larger tumour) was 99 % of control; the T/C (endpoint: mean tumor weight, dose: 600.0 mg/kg/injection, schedule: Q01DX011 (ip), vehicle: carboxymethylcellulose (CMC), higher = larger tumour) was 85 % of control.
Take `N#Cc1ncc(C(Cl)Cl)nc1Cl`: the T/C is, setting by setting: (endpoint: median survival time, dose: 25.0 mg/kg/injection, schedule: Q01DX009 (ip), vehicle: saline with Tween-80, higher = longer survival) 113 % of control; (endpoint: median survival time, dose: 50.0 mg/kg/injection, schedule: Q01DX009 (ip), vehicle: saline with Tween-80, higher = longer survival) 98 % of control.
As for `NNc1nncc2ccccc12`, the T/C reads like this: (endpoint: mean tumor weight, dose: 13.0 mg/kg/injection, schedule: Q01DX011 (ip), vehicle: carboxymethylcellulose (CMC), higher = larger tumour) 111 % of control; (endpoint: mean tumor weight, dose: 20.0 mg/kg/injection, schedule: Q01DX011 (ip), vehicle: carboxymethylcellulose (CMC), higher = larger tumour) 87 % of control; (endpoint: mean tumor weight, dose: 30.0 mg/kg/injection, schedule: Q01DX011 (ip), vehicle: carboxymethylcellulose (CMC), higher = larger tumour) 110 % of control.
Take `Cc1ccccc1Cc1ccccc1`: the T/C was 121 % of control (endpoint: mean tumor weight, dose: 78.0 mg/kg/injection, schedule: Q01DX011 (ip), vehicle: saline, higher = larger tumour); 111 % of control (endpoint: mean tumor weight, dose: 117.0 mg/kg/injection, schedule: Q01DX011 (ip), vehicle: saline, higher = larger tumour); 85 % of control (endpoint: mean tumor weight, dose: 175.0 mg/kg/injection, schedule: Q01DX011 (ip), vehicle: saline, higher = larger tumour); 103 % of control (endpoint: mean tumor weight, dose: 263.0 mg/kg/injection, schedule: Q01DX011 (ip), vehicle: saline, higher = larger tumour).
Take `CN(/N=N/N(C)c1ccccc1)c1ccccc1`: the T/C is, setting by setting: (endpoint: mean tumor weight, dose: 15.6 mg/kg/injection, schedule: Q01DX011 (ip), vehicle: carboxymethylcellulose (CMC), higher = larger tumour) 77 % of control; (endpoint: mean tumor weight, dose: 31.3 mg/kg/injection, schedule: Q01DX011 (ip), vehicle: carboxymethylcellulose (CMC), higher = larger tumour) 66 % of control; (endpoint: mean tumor weight, dose: 62.5 mg/kg/injection, schedule: Q01DX011 (ip), vehicle: carboxymethylcellulose (CMC), higher = larger tumour) 52 % of control; (endpoint: mean tumor weight, dose: 125.0 mg/kg/injection, schedule: Q01DX011 (ip), vehicle: carboxymethylcellulose (CMC), higher = larger tumour) 48 % of control.
Consider `Nc1ccc(O)cc1`, for which the T/C by setting is: (endpoint: mean tumor weight, dose: 37.5 mg/kg/injection, schedule: Q01DX011 (ip), vehicle: saline, higher = larger tumour) 96 % of control; (endpoint: mean tumor weight, dose: 300.0 mg/kg/injection, schedule: Q01DX011 (ip), vehicle: saline, higher = larger tumour) 26 % of control.
As for `N/N=C(\N)c1nn(C2OC(CO)C(O)C2O)c2ncnc(N)c12` (configuration not stated), the T/C is 124 % of control (endpoint: median survival time, dose: 40.0 mg/kg/injection, schedule: Q01DX005 (ip), vehicle: saline, higher = longer survival) and 104 % of control (endpoint: median survival time, dose: 80.0 mg/kg/injection, schedule: Q01DX005 (ip), vehicle: saline, higher = longer survival).

Values taken from PubChem BioAssay AID270 (DTP/NCI, 2004).
